test system: β-catenin-TCF-mediated reporter transcription activity in Colo 205 cells; assay: Colo 205 reporter assay (TCF/LEF luciferase); format: cell-based; details: Homo sapiens, COLO 205, 5 h, Colo 205 TCF/LEF luciferase reporter, five hours after addition of compound; read-out: TCF reporter Colo205 IC50
Procedure, shortened: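 Luciferase signal from a TCF/LEF-driven reporter, stably integrated in Colo 205 colon cancer cells, was measured 5 h after compound addition.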

| Compound | IC50 |
| --- | --- |
| Cc1nc(N[C@@H]2CO[C@H](COc3cc(F)c(F)c(F)c3)C2)nc2c1NC(=O)[C@H](C)N2C [Compound 308, (7S)-4,7,8-trimethyl-2-(((3S,5S)-5-((3,4,5-trifluorophenoxy)methyl)tetrahydrofuran-3-yl)amino)-7,8-dihydropteridin-6(5H)-one] | 1000 to 5000 nM |
| Cc1nc(N[C@H]2CO[C@@H](COc3cc(F)c(F)c(F)c3)C2)nc2c1NC(=O)[C@H](C)N2C [Compound 309, (7S)-4,7,8-trimethyl-2-(((3R,5R)-5-((3,4,5-trifluorophenoxy)methyl)-tetrahydrofuran-3-yl)amino)-7,8-dihydropteridin-6(5H)-one] | 300 to 1000 nM |
| CCN1C(=O)[C@H](C)N(C)c2nc(N[C@H]3C[C@H](Oc4cc(F)c(F)c(F)c4)C3)nc(C)c21 [Compound 312, (7S)-5-ethyl-4,7,8-trimethyl-2-((trans-3-(3,4,5-trifluorophenoxy)-cyclobutyl)amino)-7,8-dihydropteridin-6(5H)-one] | < 300 nM |
| Cc1nc(N[C@H]2C[C@H](Oc3cc(F)c(F)c(F)c3)C2)nc2c1N(CC(F)(F)F)C(=O)[C@H](C)N2C [Compound 313, (7S)-4,7,8-trimethyl-5-(2,2,2-trifluoroethyl)-2-((trans-3-(3,4,5-trifluorophenoxy)cyclobutyl)-amino)-7,8-dihydropteridin-6(5H)-one] | ≥ 5000 nM |
| Cc1nc(N[C@H]2C[C@H](Oc3cncc(C(F)(F)F)c3)C2)nc2c1N(C)C(=O)[C@H](C)N2C [Compound 314, (7S)-4,5,7,8-tetramethyl-2-((trans-3-((5-(trifluoromethyl)pyridin-3-yl)oxy)cyclobutyl)amino)-7,8-dihydropteridin-6(5H)-one] | 300 to 1000 nM |
| Cc1nc(N[C@H]2C[C@H](Oc3cncc(C(F)(F)F)c3)C2)nc2c1NC(=O)[C@H](C)N2C [Compound 315, (7S)-4,7,8-trimethyl-2-((trans-3-((5-(trifluoromethyl)pyridin-3-yl)oxy)cyclobutyl)amino)-7,8-dihydropteridin-6(5H)-one] | < 300 nM |
| Cc1nc(N[C@H]2C[C@H](Sc3ccc(C(F)(F)F)cc3)C2)nc2c1NC(=O)[C@H](C)N2C [Compound 317, (7S)-4,7,8-trimethyl-2-((trans-3-((4-(trifluoromethyl)phenyl)thio)-cyclobutyl)amino)-7,8-dihydropteridin-6(5H)-one] | 300 to 1000 nM |
| Cc1nc(N[C@H]2C[C@H](Sc3ccc(C(F)(F)F)cc3)C2)nc2c1N(C)C(=O)[C@H](C)N2C [Compound 320, (7S)-4,5,7,8-tetramethyl-2-((trans-3-((4(trifluoromethyl)phenyl)thio)-cyclobutyl)-amino)-7,8-dihydropteridin-6(5H)-one] | 1000 to 5000 nM |
| Cc1nc(N[C@H]2C[C@@H](Sc3ccc(C(F)(F)F)cc3)C2)nc2c1NC(=O)[C@H](C)N2C [Compound 321, (7S)-4,7,8-trimethyl-2-((cis-3-((4-(trifluoromethyl)phenyl)thio)cyclobutyl)amino)-7,8-dihydropteridin-6(5H)-one] | 300 to 1000 nM |
| Cc1nc(N[C@H]2C[C@@H](Sc3ccc(C(F)(F)F)cc3)C2)nc2c1N(C)C(=O)[C@H](C)N2C [Compound 322, (7S)-4,5,7,8-tetramethyl-2-((cis-3-((4-(trifluoromethyl)phenyl)thio)cyclobutyl)amino)-7,8-dihydropteridin-6(5H)-one] | 300 to 1000 nM |
| Cc1nc(N[C@H]2C[C@H](Oc3ccc(C(F)(F)F)nc3)C2)nc2c1N(C)C(=O)[C@H](C)N2C [Compound 323, (7S)-4,5,7,8-tetramethyl-2-((trans-3-((6-(trifluoromethyl)pyridin-3-yl)oxy)cyclobutyl)amino)-7,8-dihydropteridin-6(5H)-one] | < 300 nM |
| Cc1nc(N[C@H]2C[C@H](Oc3ccc(OC(F)(F)F)cc3)C2)nc2c1N(C)C(=O)[C@H](C)N2C [Compound 325, (7S)-4,5,7,8-tetramethyl-2-((trans-3-(4-(trifluoromethoxy)phenoxy)-cyclobutyl)amino)-7,8-dihydropteridin-6(5H)-one] | 300 to 1000 nM |
| Cc1nc(N[C@H]2C[C@H](Oc3ccc(OC(F)(F)F)cc3)C2)nc2c1NC(=O)[C@H](C)N2C [Compound 326, (7S)-4,7,8-trimethyl-2-((trans-3-(4-(trifluoromethoxy)phenoxy)-cyclobutyl)amino)-7,8-dihydropteridin-6(5H)-one] | < 300 nM |
| [2H]C([2H])([2H])N1C(=O)[C@H](C)N(C)c2nc(N[C@H]3C[C@H](Oc4cc(F)c(F)c(F)c4)C3)nc(C)c21 [Compound 327, (7S)-4,7,8-trimethyl-5-(methyl-d3)-2-((trans-3-(3,4,5-trifluorophenoxy)-cyclobutyl)-amino)-7,8-dihydropteridin-6(5H)-one] | < 300 nM |
| [2H]C([2H])([2H])C([2H])([2H])N1C(=O)[C@H](C)N(C)c2nc(N[C@H]3C[C@H](Oc4cc(F)c(F)c(F)c4)C3)nc(C)c21 [Compound 328, (7S)-5-(ethyl-d5)-4,7,8-trimethyl-2-((trans-3-(3,4,5-trifluorophenoxy)-cyclobutyl)amino)-7,8-dihydropteridin-6(5H)-one] | < 300 nM |
| Cc1nc(N[C@H]2C[C@H](Sc3cc(F)c(F)c(F)c3)C2)nc2c1N(C)C(=O)[C@H](C)N2C [Compound 330, (7S)-4,5,7,8-tetramethyl-2-((trans-3-((3,4,5-trifluorophenyl)thio)-cyclobutyl)amino)-7,8-dihydropteridin-6(5H)-one] | 300 to 1000 nM |

| Compound | IC50 |
| --- | --- |
| Cc1nc(N[C@H]2C[C@@H](Sc3cc(F)c(F)c(F)c3)C2)nc2c1N(C)C(=O)[C@H](C)N2C [Compound 331, (7S)-4,5,7,8-tetramethyl-2-((cis-3-((3,4,5-trifluorophenyl)thio)cyclobutyl)amino)-7,8-dihydropteridin-6(5H)-one] | < 300 nM |
| Cc1nc(N[C@H]2C[C@H](Oc3cnc(C(F)(F)F)nc3)C2)nc2c1NC(=O)[C@H](C)N2C [Compound 333, (7S)-4,7,8-trimethyl-2-((trans-3-((2-(trifluoromethyl)pyrimidin-5-yl)oxy)cyclobutyl)amino)-7,8-dihydropteridin-6(5H)-one] | < 300 nM |
| Cc1nc(N[C@H]2C[C@H](Oc3cnc(C(F)(F)F)nc3)C2)nc2c1N(C)C(=O)[C@H](C)N2C [Compound 334, (7S)-4,5,7,8-tetramethyl-2-((trans-3-((2-(trifluoromethyl)pyrimidin-5-yl)oxy)cyclobutyl)amino)-7,8-dihydropteridin-6(5H)-one] | 300 to 1000 nM |
| Cc1nc(N[C@H]2C[C@@H](Sc3ccc(OC(F)(F)F)cc3)C2)nc2c1NC(=O)[C@H](C)N2C [Compound 336, (7S)-4,7,8-trimethyl-2-((cis-3-((4-(trifluoromethoxy)phenyl)thio)cyclobutyl)amino)-7,8-dihydropteridin-6(5H)-one] | 300 to 1000 nM |
| Cc1nc(N[C@H]2C[C@H](Oc3ccnc(C(F)(F)F)c3)C2)nc2c1N(C)C(=O)[C@H](C)N2C [Compound 337, (7S)-4,5,7,8-tetramethyl-2-((trans-3-((2-(trifluoromethyl)pyridin-4-yl)oxy)cyclobutyl)amino)-7,8-dihydropteridin-6(5H)-one] | 300 to 1000 nM |
| Cc1ccc(O[C@H]2C[C@H](Nc3nc(C)c4c(n3)N(C)[C@@H](C)C(=O)N4C)C2)cc1 [Compound 338, (7S)-4,5,7,8-tetramethyl-2-((trans-3-(p-tolyloxy)cyclobutyl)amino)-7,8-dihydropteridin-6(5H)-one] | 1000 to 5000 nM |
| Cc1ccc(O[C@H]2C[C@H](Nc3nc(C)c4c(n3)N(C)[C@@H](C)C(=O)N4)C2)cc1 [Compound 339, (7S)-4,7,8-trimethyl-2-((trans-3-(p-tolyloxy)cyclobutyl)amino)-7,8-dihydropteridin-6(5H)-one] | 300 to 1000 nM |
| Cc1nc(N[C@H]2C[C@H](Oc3ccc(C(F)(F)F)cc3)C2)nc2c1NC(=O)[C@H](C)N2C [Compound 340, (7S)-4,7,8-trimethyl-2-((trans-3-(4-(trifluoromethyl)phenoxy)cyclobutyl)amino)-7,8-dihydropteridin-6(5H)-one] | < 300 nM |
| Cc1nc(N[C@H]2C[C@H](Oc3ccc(C(F)(F)F)cc3)C2)nc2c1N(C)C(=O)[C@H](C)N2C [Compound 341, (7S)-4,5,7,8-tetramethyl-2-((trans-3-(4-(trifluoromethyl)phenoxy)-cyclobutyl)-amino)-7,8-dihydropteridin-6(5H)-one] | < 300 nM |
| COc1ccc(O[C@H]2C[C@H](Nc3nc(C)c4c(n3)N(C)[C@@H](C)C(=O)N4)C2)cc1 [Compound 342, (7S)-2-((trans-3-(4-methoxyphenoxy)cyclobutyl)amino)-4,7,8-trimethyl-7,8-dihydropteridin-6(5H)-one] | 1000 to 5000 nM |
| COc1ccc(O[C@H]2C[C@H](Nc3nc(C)c4c(n3)N(C)[C@@H](C)C(=O)N4C)C2)cc1 [Compound 343, (7S)-2-((trans-3-(4-methoxyphenoxy)cyclobutyl)amino)-4,5,7,8-tetramethyl-7,8-dihydropteridin-6(5H)-one] | ≥ 5000 nM |
| COc1cc(F)ccc1O[C@H]1C[C@H](Nc2nc(C)c3c(n2)N(C)[C@@H](C)C(=O)N3)C1 [Compound 344, (7S)-2-((trans-3-(4-fluoro-2-methoxyphenoxy)cyclobutyl)amino)-4,7,8-trimethyl-7,8-dihydropteridin-6(5H)-one] | 300 to 1000 nM |
| COc1cc(F)ccc1O[C@H]1C[C@H](Nc2nc(C)c3c(n2)N(C)[C@@H](C)C(=O)N3C)C1 [Compound 345, (7S)-2-((trans-3-(4-fluoro-2-methoxyphenoxy)cyclobutyl)amino)-4,5,7,8-tetramethyl-7,8-dihydropteridin-6(5H)-one] | 300 to 1000 nM |
| Cc1nc(N[C@H]2C[C@H](Oc3ccc(OCC(F)(F)F)nc3)C2)nc2c1N(C)C(=O)[C@H](C)N2C [Compound 346, (7S)-4,5,7,8-tetramethyl-2-((trans-3-((6-(2,2,2-trifluoroethoxy)pyridin-3-yl)oxy)cyclobutyl)amino)-7,8-dihydropteridin-6(5H)-one] | 300 to 1000 nM |
| Cc1nc(N[C@H]2C[C@H](Oc3ccc(OCC(F)(F)F)nc3)C2)nc2c1NC(=O)[C@H](C)N2C [Compound 347, (7S)-4,7,8-trimethyl-2-((trans-3-((6-(2,2,2-trifluoroethoxy)pyridin-3-yl)oxy)cyclobutyl)amino)-7,8-dihydropteridin-6(5H)-one] | < 300 nM |

Reference: patent US20230312587A1, “PTERIDINONE COMPOUNDS AND USES THEREOF” (Vertex Pharmaceutical Incorporated, priority 2018, published 2023)
